Measured values: patent US12329158B2, “Large-scale methods of uniformly coating packaging surfaces with a volatile antimicrobial to preserve food freshness” (AGROFRESH INC., priority 2013, dated 2025)
Values after ≈ are worked out from the molar mass of the structure shown.

Columns and labels:
[1] = system: Botrytis cinerea; assay: Painting on base, lid or base and lid of clamshells; strawberries (Example 6); format: in vivo
Procedure: Five milligrams of Compound A was dissolved in 1 ml of ethanol prior to being uniformly administered to the interior of the clamshell by painting or spraying, and then dried for 5 minutes. After coating the clamshells with Compound A using various application techniques (i.e., sublimation, spraying, or painting), eight ethanol-washed strawberries were placed in the clamshell with stem end facing downwards. Each strawberry fruit was wounded using a T15 screwdriver tip to a uniform depth of eight mm (8 mm). […] Uninoculated strawberries were removed from their commercial package, and directly transferred into treated clamshells without any washing or inoculation steps.
Treated clamshells lids were closed, and then placed at 1° C. for an initial time period of 5 days. Clamshells were then removed from low temperature, and held for a second time period of 6 days at room temperature where the point of inoculation on the strawberry fruits was assessed for indication of disease incidence reported as a percentage (%). Severity of disease incidence was also reported.
This in vivo assay was used to evaluate the ability of Compound A to volatilize from different locations of a clamshell (i.e., the base and/or the lid of the clamshell) in order to control or inhibit fruit infection by pathogenic microorganism, Botrytis cinerea. This experiment was conducted exactly as described in Example 1, with a few exceptions. Compound A was administered to the clamshell by painting only. 5 mg of Compound A was painted onto the surface of the base of the clamshell or the lid of the clamshell (i.e., 5 mg/clamshell treatment rate). 2.5 mg of Compound A was painted onto the base and the lid of the clamshell (for a total of 5 mg/clamshell treatment rate). The clamshell was then permitted to dry for 5 minutes. Strawberries were inoculated with Botrytis cinerea, placed within the clamshell for an initial time period of 5 days, and assessed for disease incidence and severity over a second time period of 7 days as described in Example 1.

[2] = system: Botrytis cinerea; assay: Volatile MIC assay (Example 9); format: cell-based; settings: 72 h, headspace concentration, 3 days at 23 C, read-out: MIC (mg/L) BOTRCI
Procedure: (§1) A 3-mL volume of full-strength Potato Dextrose Agar (PDA) is added to each well. […] Plates are inoculated immediately prior to volatile fungicide treatment. A Whatman #1 filter disk (Cat. No. 1001-0155) is placed, in duplicate, on the underside of a polyethylene PCR plate sealing film. […] The acetone is permitted to evaporate for 5 minutes. The headspace around the inoculum is then sealed inside the well by the film with the adhering disk containing the fungicide by inverting the plates over the treated disks and sealing to prevent any of the chemical from flaking from the disk and falling onto the inoculated agar.

[3] = system: Penicillium expansum; assay: Volatile MIC assay (Example 9); format: cell-based; settings: 72 h, headspace concentration, 3 days at 23 C, read-out: MIC (mg/L) PENIEX
Procedure: as §1

[4] = system: Botrytis cinerea; assay: In vitro volatile assay (Example 24); format: cell-based; settings: 72 h, headspace, 100% control, 3 days at 23 C, read-out: Volatile MIC (mg/L) B. cinerea
Procedure: (§2) Volatile assay: 12-well (6.5 mL volume per well) microtiter plates are used. A 3-mL volume of half strength PDA is added to each well. […] A Whatman #1 filter disk (Cat. No. 1001-0155) is placed, in duplicate, on the underside of a polyethylene PCR plate sealing film. […] The acetone is permitted to evaporate for 5 minutes. The headspace around the inoculum is then sealed inside the well by the film with the adhering disk containing the fungicide. Plates are inverted, placed over the treated disks, and sealed to prevent any of the chemical from flaking from the disk and falling onto the inoculated agar. […] Contact assay: 6-well (16.5 mL volume per well) microtiter plates are used for an in vitro inhibition assay. […] A 7.5-mL volume of the amended media is added to each well of the microtiter plate. […] The plates are sealed with a clear film and incubated for 3 days at 23° C. After incubation, plates are evaluate for percent growth relative to acetone only control.

[5] = system: Penicillium expansum; assay: In vitro volatile assay (Example 24); format: cell-based; settings: 72 h, headspace, 100% control, 3 days at 23 C, read-out: Volatile MIC (mg/L) P. expansum
Procedure: as §2

[6] = system: Penicillium digitatum; assay: Green mold on orange, contact assay (Example 25); format: in vivo; settings: Contact (dip); rate not given; day 3 at 21 C after 5 days at 1 C
Procedure: A 250 mL solution of each concentration is used to dip two inoculated fruits, one minute per fruit, performed in triplicate per rate. The dipped fruits are then placed back into the clamshells and then into the SnapWare container and incubated at 1° C. for 5 days. […] Volatile application of Compound A results in excellent inhibition of browning and sporulation, whereas all other active ingredients result in no or little inhibition.

[7] = Solubility in methanol (remark in Example 25); format: physicochemical; settings: room temperature
[8] = Inoculated Fruit, painted on Base and Lid, 2.5/2.5 mg, Day 0
[9] = Inoculated Fruit, painted on Base and Lid, 2.5/2.5 mg, Day 1
[10] = Inoculated Fruit, painted on Base and Lid, 2.5/2.5 mg, Day 2
[11] = Inoculated Fruit, painted on Base and Lid, 2.5/2.5 mg, Day 3
[12] = Inoculated Fruit, painted on Base and Lid, 2.5/2.5 mg, Day 4
[13] = Inoculated Fruit, painted on Base and Lid, 2.5/2.5 mg, Day 5
[14] = Inoculated Fruit, painted on Base and Lid, 2.5/2.5 mg, Day 6
[15] = Inoculated Fruit, painted on Base and Lid, 2.5/2.5 mg, Day 7
[16] = Inoculated Fruit, painted on Base, 5 mg, Day 7
[17] = Uninoculated Fruit, painted on Base, 5 mg, Day 0
[18] = Uninoculated Fruit, painted on Base, 5 mg, Day 1
[19] = Uninoculated Fruit, painted on Base, 5 mg, Day 2
[20] = Uninoculated Fruit, painted on Base, 5 mg, Day 3
[21] = Uninoculated Fruit, painted on Base, 5 mg, Day 4

OB1OCc2cc(F)ccc21 [Compound A, 5-fluoro-1,3-dihydro-1-hydroxy-2,1-benzoxaborole]
Gray Mold Incidence (%) [1, 8]: 0.0% | Gray Mold Severity (0-4) [1, 8]: 0.0 | Gray Mold Incidence (%) [1, 9]: 0.0% | Gray Mold Severity (0-4) [1, 9]: 0.0 | Gray Mold Incidence (%) [1, 10]: 0.0% | Gray Mold Severity (0-4) [1, 10]: 0.0 | Gray Mold Incidence (%) [1, 11]: 0.0% | Gray Mold Severity (0-4) [1, 11]: 0.0 | Gray Mold Incidence (%) [1, 12]: 0.0% | Gray Mold Severity (0-4) [1, 12]: 0.0 | Gray Mold Incidence (%) [1, 13]: 0.0% | Gray Mold Severity (0-4) [1, 13]: 0.0 | Gray Mold Incidence (%) [1, 14]: 0.0% | Gray Mold Severity (0-4) [1, 14]: 0.0 | Gray Mold Incidence (%) [1, 15]: 0.0% | Gray Mold Severity (0-4) [1, 15]: 0.0 | Gray Mold Severity (0-4) ([1]; Inoculated Fruit, painted on Base, 5 mg, Day 0): 0.0 | Gray Mold Severity (0-4) ([1]; Inoculated Fruit, painted on Base, 5 mg, Day 1): 0.0 | Gray Mold Severity (0-4) ([1]; Inoculated Fruit, painted on Base, 5 mg, Day 2): 0.1 | Gray Mold Severity (0-4) ([1]; Inoculated Fruit, painted on Base, 5 mg, Day 3): 0.1 | Gray Mold Severity (0-4) ([1]; Inoculated Fruit, painted on Base, 5 mg, Day 4): 0.0 | Gray Mold Severity (0-4) ([1]; Inoculated Fruit, painted on Base, 5 mg, Day 5): 0.0 | Gray Mold Severity (0-4) ([1]; Inoculated Fruit, painted on Base, 5 mg, Day 6): 0.2 | Gray Mold Incidence (%) [1, 16]: 18.8% | Gray Mold Severity (0-4) [1, 16]: 0.3 | Gray Mold Severity (0-4) ([1]; Inoculated Fruit, painted on Lid, 5 mg, Day 0): 0.0 | Gray Mold Severity (0-4) ([1]; Inoculated Fruit, painted on Lid, 5 mg, Day 1): 0.0 | Gray Mold Severity (0-4) ([1]; Inoculated Fruit, painted on Lid, 5 mg, Day 2): 0.0 | Gray Mold Severity (0-4) ([1]; Inoculated Fruit, painted on Lid, 5 mg, Day 3): 0.0 | Gray Mold Severity (0-4) ([1]; Inoculated Fruit, painted on Lid, 5 mg, Day 4): 0.0 | Gray Mold Severity (0-4) ([1]; Inoculated Fruit, painted on Lid, 5 mg, Day 5): 0.0 | Gray Mold Severity (0-4) ([1]; Inoculated Fruit, painted on Lid, 5 mg, Day 6): 0.0 | Gray Mold Severity (0-4) ([1]; Inoculated Fruit, painted on Lid, 5 mg, Day 7): 0.0 | Gray Mold Severity (0-4) ([1]; Uninoculated Fruit, painted on Base and Lid, 2.5/2.5 mg, Day 0): 0.0 | Gray Mold Severity (0-4) ([1]; Uninoculated Fruit, painted on Base and Lid, 2.5/2.5 mg, Day 1): 0.0 | Gray Mold Severity (0-4) ([1]; Uninoculated Fruit, painted on Base and Lid, 2.5/2.5 mg, Day 2): 0.0 | Gray Mold Severity (0-4) ([1]; Uninoculated Fruit, painted on Base and Lid, 2.5/2.5 mg, Day 3): 0.2 | Gray Mold Severity (0-4) ([1]; Uninoculated Fruit, painted on Base and Lid, 2.5/2.5 mg, Day 4): 0.8 | Gray Mold Severity (0-4) ([1]; Uninoculated Fruit, painted on Base and Lid, 2.5/2.5 mg, Day 5): 1.5 | Gray Mold Severity (0-4) ([1]; Uninoculated Fruit, painted on Base and Lid, 2.5/2.5 mg, Day 6): 1.5 | Gray Mold Severity (0-4) ([1]; Uninoculated Fruit, painted on Base and Lid, 2.5/2.5 mg, Day 7): 1.5 | Gray Mold Incidence (%) [1, 17]: 0.0% | Gray Mold Severity (0-4) [1, 17]: 0.0 | Gray Mold Incidence (%) [1, 18]: 0.0% | Gray Mold Severity (0-4) [1, 18]: 0.0 | Gray Mold Incidence (%) [1, 19]: 0.0% | Gray Mold Severity (0-4) [1, 19]: 0.0 | Gray Mold Incidence (%) [1, 20]: 0.0% | Gray Mold Severity (0-4) [1, 20]: 0.0 | Gray Mold Incidence (%) [1, 21]: 2.2% | Gray Mold Severity (0-4) [1, 21]: 0.3 | Gray Mold Severity (0-4) ([1]; Uninoculated Fruit, painted on Base, 5 mg, Day 5): 0.8 | Gray Mold Severity (0-4) ([1]; Uninoculated Fruit, painted on Base, 5 mg, Day 6): 1.2 | Gray Mold Severity (0-4) ([1]; Uninoculated Fruit, painted on Base, 5 mg, Day 7): 1.5 | Gray Mold Severity (0-4) ([1]; Uninoculated Fruit, painted on Lid, 5 mg, Day 0): 0.0 | Gray Mold Severity (0-4) ([1]; Uninoculated Fruit, painted on Lid, 5 mg, Day 1): 0.0 | Gray Mold Severity (0-4) ([1]; Uninoculated Fruit, painted on Lid, 5 mg, Day 2): 0.0 | Gray Mold Severity (0-4) ([1]; Uninoculated Fruit, painted on Lid, 5 mg, Day 3): 0.2 | Gray Mold Severity (0-4) ([1]; Uninoculated Fruit, painted on Lid, 5 mg, Day 4): 1.2 | Gray Mold Severity (0-4) ([1]; Uninoculated Fruit, painted on Lid, 5 mg, Day 5): 2.0 | Gray Mold Severity (0-4) ([1]; Uninoculated Fruit, painted on Lid, 5 mg, Day 6): 2.0 | Gray Mold Severity (0-4) ([1]; Uninoculated Fruit, painted on Lid, 5 mg, Day 7): 2.5 | MIC [2]: 2.2 mg/L (≈ 14.5 µM) | MIC [3]: 2.2 mg/L (≈ 14.5 µM) | MIC [4]: 0.3 mg/L (≈ 1.97 µM) | MIC [5]: 2.2 mg/L (≈ 14.5 µM) | Orange Sporulation (mm) [6]: >50 mm | Solubility in methanol (in words) [7]: not soluble in methanol at room temperature
